Where two headings read alike, the source gives them in different places.
What was measured:
[1] = system: primary human total T-cells; experiment: Primary human total T-cell activation (IL-2 secretion, CD25 surface staining), Biological Example 2; conditions: fold change over baseline; for CD25 staining CD3/CD28 0.3 μM / IL-2 secretion CD3/CD28 0.3 μM: 0.3 μM inhibitor; for CD25 staining CD3/CD28 0.3 μM / IL-2 secretion CD3/CD28 0.3 μM / CD25 staining CD3/CD28 1 μM / IL-2 secretion CD3/CD28 1 μM: anti-CD3 and anti-CD28 co-stimulation; for CD25 staining CD3/CD28 1 μM / IL-2 secretion CD3/CD28 1 μM / CD25 staining CD3 1 μM / IL-2 secretion CD3 1 μM: 1 μM inhibitor; for CD25 staining CD3 1 μM / IL-2 secretion CD3 1 μM / CD25 staining CD3 3 μM / IL-2 secretion CD3 3 μM: anti-CD3 stimulation alone; for CD25 staining CD3 3 μM / IL-2 secretion CD3 3 μM: 3 μM inhibitor
Protocol: Peripheral blood mononuclear cells (PBMC) were obtained either: 1) by using Ficoll-Paque™ (GE Healthcare) for separation of peripheral blood hematopoietic cells from buffy coats of healthy human donors; or 2) directly from LeukoPak donations. […] The cells were rested overnight at 37° C. 5% CO2. The Cbl-inhibitor was added to 1×10^5 cells per well and the plate was incubated for one hour at 37° C. in 5% CO2 at the concentrations indicated (Table 3) with a final DMSO concentration of <0.1%. For samples stimulated with anti-CD3 antibody and anti-CD28 antibody (anti-CD3/anti-CD28), the Cbl-b inhibitor concentrations tested were 1 μM, and 0.3 μM. For samples stimulated with anti-CD3 antibody alone (anti-CD3), the Cbl-b inhibitor concentrations tested were 3 μM, and 1 μM. […] To prepare plates with plate bound anti-CD3 antibody (OKT3), 96-well round bottom tissue culture plates were coated with 100 μL of anti-CD3 antibody (OKT3) at 10 μg/mL for 4 hours at 37° C. 5% CO2 in phosphate buffered saline (PBS). […] Cells were stimulated for 48 hours prior to harvesting the cell free supernatant and staining the cell population for surface marker assessment by flow cytometry. Supernatants were analyzed for cytokine secretion, including IL-2 by ELISA (R&D Systems, Peprotech or Life Technologies) or Luminex multiplex kits (Procarta Life Technologies) following the manufacturer's protocol. Cells were stained with anti-CD25 antibody (BD Biosciences) to assess levels of surface marker of activation.
Readouts were reported as fold change over baseline. Baseline for this study was the measurement obtained from total human T-cells stimulated with anti-CD3 antibody and with soluble anti-CD28 antibody, wherein the cells were not incubated with a Cbl-b inhibitor (Table 3).

Cbl-b = Cbl-b (Homo sapiens (Human), UniProt Q13191); experiment: Cbl-b displacement assay (Cbl-b inhibition assay), Biological Example 1; type: binding
Chain of Cbl-b (Q13191 36-427): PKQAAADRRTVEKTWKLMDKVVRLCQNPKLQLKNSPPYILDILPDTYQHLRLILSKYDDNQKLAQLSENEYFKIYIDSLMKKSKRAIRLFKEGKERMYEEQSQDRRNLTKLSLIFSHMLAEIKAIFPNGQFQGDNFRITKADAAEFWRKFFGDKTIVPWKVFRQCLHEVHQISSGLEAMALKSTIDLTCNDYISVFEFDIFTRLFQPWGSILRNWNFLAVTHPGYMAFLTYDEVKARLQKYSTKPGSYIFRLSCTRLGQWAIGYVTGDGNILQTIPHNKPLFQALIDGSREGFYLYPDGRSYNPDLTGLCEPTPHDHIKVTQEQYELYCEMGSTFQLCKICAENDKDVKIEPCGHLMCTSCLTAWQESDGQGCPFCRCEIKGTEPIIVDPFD
Protocol: The ability of candidate compounds to displace a known inhibitor and thereby inhibit Cbl-b activity was measured by monitoring the interaction of Cbl-b with a fluorophore-labeled probe in the presence of the candidate compound.
Following the one hour incubation, the plates were read for TR-FRET signal at 520/620 nm using an Envision plate reader (Perkin Elmer).

[2] = 0.125 nM Cbl-b final concentration (Low), read-out: Cbl-b activity IC50 (Low)

| IC50 (Cbl-b; [2]) [nM] | IC50 (Cbl-b; read-out: IC50 values in the Cbl-b inhibition assay of Biological Example 1) [nM] | Structure (SMILES) | CD25 staining CD3/CD28 0.3 μM [1] | IL-2 secretion CD3/CD28 0.3 μM [1] | CD25 staining CD3/CD28 1 μM [1] | IL-2 secretion CD3/CD28 1 μM [1] | CD25 staining CD3 1 μM [1] | IL-2 secretion CD3 1 μM [1] | CD25 staining CD3 3 μM [1] | IL-2 secretion CD3 3 μM [1] |
| --- | --- | --- | --- | --- | --- | --- | --- | --- | --- | --- |
| 20 to 100 |  | C[C@@H]1CN(Cc2cc3c(c(C(F)(F)F)c2)CN(c2cccc([C@]4(c5nncn5C)C[C@H](C)C4)c2)C3=O)CCC1(F)F [Compound 20, 6-(((R)-4,4-difluoro-3-methylpiperidin-1-yl)methyl)-2-(3-((1r,3R)-3-methyl-1-(4-methyl-4H-1,2,4-triazol-3-yl)cyclobutyl)phenyl)-4-(trifluoromethyl)isoindolin-1-one] | B (B indicates 1.24-1.39 fold) | C (C indicates <20 fold) | B (B indicates 1.24-1.39 fold) | C (C indicates <20 fold) | A (A indicates >2.5 fold) | B (B indicates 0.70-1.1 fold) | A (A indicates >2.5 fold) | A (A indicates >1.1 fold) |
| 5 to 20 |  | C[C@H]1CCCN(Cc2cc3c(c(C4CC4)n2)CN(c2cccc([C@]4(c5nncn5C)C[C@@H](C)C4)c2)C3=O)C1 [Compound 25, 4-cyclopropyl-2-(3-((1s,3R)-3-methyl-1-(4-methyl-4H-1,2,4-triazol-3-yl)cyclobutyl)phenyl)-6-(((S)-3-methylpiperidin-1-yl)methyl)-2,3-dihydro-1H-pyrrolo[3,4-c]pyridin-1-one] | B (B indicates 1.24-1.39 fold) | C (C indicates <20 fold) | B (B indicates 1.24-1.39 fold) | C (C indicates <20 fold) | B (B indicates 1.5-2.5 fold) | B (B indicates 0.70-1.1 fold) | B (B indicates 1.5-2.5 fold) | B (B indicates 0.70-1.1 fold) |
| 5 to 20 |  | C[C@@H]1CN(Cc2cc3c(c(C4CC4)n2)CN(c2cccc([C@]4(c5nncn5C)C[C@@H](C)C4)c2)C3=O)CCC1(F)F [Compound 26, 4-cyclopropyl-6-(((R)-4,4-difluoro-3-methylpiperidin-1-yl)methyl)-2-(3-((1s,3S)-3-methyl-1-(4-methyl-4H-1,2,4-triazol-3-yl)cyclobutyl)phenyl)-2,3-dihydro-1H-pyrrolo[3,4-c]pyridin-1-one] | B (B indicates 1.24-1.39 fold) | C (C indicates <20 fold) |  | B (B indicates 20-35 fold) | A (A indicates >2.5 fold) | A (A indicates >1.1 fold) | A (A indicates >2.5 fold) | A (A indicates >1.1 fold) |
| 5 to 20 |  | C[C@@H]1CN(Cc2cc3c(c(C4CC4)n2)CN(c2cccc([C@]4(c5nncn5C)C[C@@H](C)C4)c2)C3=O)CCO1 [Compound 29, 4-cyclopropyl-2-(3-((1s,3S)-3-methyl-1-(4-methyl-4H-1,2,4-triazol-3-yl)cyclobutyl)phenyl)-6-(((R)-2-methylmorpholino)methyl)-2,3-dihydro-1H-pyrrolo[3,4-c]pyridin-1-one] | B (B indicates 1.24-1.39 fold) | C (C indicates <20 fold) | B (B indicates 1.24-1.39 fold) | B (B indicates 20-35 fold) | A (A indicates >2.5 fold) | A (A indicates >1.1 fold) | B (B indicates 1.5-2.5 fold) | B (B indicates 0.70-1.1 fold) |

Second part, the compound before the results:

| Structure (SMILES) | IC50 (Cbl-b; [2]) [nM] | IC50 (Cbl-b; read-out: IC50 values in the Cbl-b inhibition assay of Biological Example 1) [nM] | CD25 staining CD3/CD28 0.3 μM [1] | IL-2 secretion CD3/CD28 0.3 μM [1] | CD25 staining CD3/CD28 1 μM [1] | IL-2 secretion CD3/CD28 1 μM [1] | CD25 staining CD3 1 μM [1] | IL-2 secretion CD3 1 μM [1] | CD25 staining CD3 3 μM [1] | IL-2 secretion CD3 3 μM [1] |
| --- | --- | --- | --- | --- | --- | --- | --- | --- | --- | --- |
| Cn1cnnc1C(C)(c1cccc(N2Cc3c(cccc3C(F)(F)F)C2=O)c1)C1CCC1 (stereo not shown) [Compound 18, 2-(3-(1-cyclobutyl-1-(4-methyl-4H-1,2,4-triazol-3-yl)ethyl)phenyl)-4-(trifluoromethyl)isoindolin-1-one] | > 100 | > 100 | B (B indicates 1.24-1.39 fold) | C (C indicates <20 fold) | B (B indicates 1.24-1.39 fold) | C (C indicates <20 fold) | B (B indicates 1.5-2.5 fold) | C (C indicates <0.70 fold) | A (A indicates >2.5 fold) | C (C indicates <0.70 fold) |
| C[C@@H]1CN(Cc2cc3c(c(C(F)(F)F)c2)CN(c2cccc([C@]4(c5nncn5C)C[C@@H](C)C4)c2)C3=O)CCC1(F)F [Compound 19, 6-(((R)-4,4-difluoro-3-methylpiperidin-1-yl)methyl)-2-(3-((1s,3S)-3-methyl-1-(4-methyl-4H-1,2,4-triazol-3-yl)cyclobutyl)phenyl)-4-(trifluoromethyl)isoindolin-1-one] | 20 to 100 |  |  | C (C indicates <20 fold) |  | C (C indicates <20 fold) | C (C indicates <1.5 fold) | C (C indicates <0.70 fold) | C (C indicates <1.5 fold) | C (C indicates <0.70 fold) |
| Cc1cc(C(=O)Nc2cccc([C@]3(c4nncn4C)C[C@@H](C)C3)c2)nc(C2CC2)n1 [Compound 21, 2-cyclopropyl-6-methyl-N-{3-[(1r,3s)-3-methyl-1-(4-methyl-1,2,4-triazol-3-yl)cyclobutyl]phenyl}pyrimidine-4-carboxamide] | 20 to 100 |  | B (B indicates 1.24-1.39 fold) | C (C indicates <20 fold) | B (B indicates 1.24-1.39 fold) | C (C indicates <20 fold) | B (B indicates 1.5-2.5 fold) | B (B indicates 0.70-1.1 fold) | B (B indicates 1.5-2.5 fold) | B (B indicates 0.70-1.1 fold) |
| Cc1cc(C(=O)Nc2cccc([C@]3(c4nncn4C)C[C@H](C)C3)c2)nc(C2CC2)n1 [Compound 22, 2-cyclopropyl-6-methyl-N-{3-[(1s,3r)-3-methyl-1-(4-methyl-1,2,4-triazol-3-yl)cyclobutyl]phenyl}pyrimidine-4-carboxamide] | 20 to 100 |  |  | C (C indicates <20 fold) |  | C (C indicates <20 fold) | C (C indicates <1.5 fold) | C (C indicates <0.70 fold) | C (C indicates <1.5 fold) | C (C indicates <0.70 fold) |
| C[C@@H]1CN(Cc2cc3c(c(C(F)(F)F)c2)CN(c2cccc([C@]4(c5nncn5C)C[C@@H](C)C4)c2)C3=O)CCO1 [Compound 24, 2-(3-((1s,3S)-3-methyl-1-(4-methyl-4H-1,2,4-triazol-3-yl)cyclobutyl)phenyl)-6-(((R)-2-methylmorpholino)methyl)-4-(trifluoromethyl)isoindolin-1-one] | 20 to 100 |  |  | C (C indicates <20 fold) |  | C (C indicates <20 fold) | C (C indicates <1.5 fold) | C (C indicates <0.70 fold) | C (C indicates <1.5 fold) | C (C indicates <0.70 fold) |
| CC[C@H]1CN(Cc2cc3c(c(C(F)(F)F)c2)CN(c2cccc([C@]4(c5nncn5C)C[C@@H](C)C4)c2)C3=O)CCO1 [Compound 27, 6-(((S)-2-ethylmorpholino)methyl)-2-(3-((1s,3R)-3-methyl-1-(4-methyl-4H-1,2,4-triazol-3-yl)cyclobutyl)phenyl)-4-(trifluoromethyl)isoindolin-1-one] | 5 to 20 |  | B (B indicates 1.24-1.39 fold) | C (C indicates <20 fold) |  | B (B indicates 20-35 fold) | C (C indicates <1.5 fold) | C (C indicates <0.70 fold) | C (C indicates <1.5 fold) | C (C indicates <0.70 fold) |
| C[C@@H]1CN(Cc2cc3c(c(C(F)(F)F)c2)CN(c2cccc([C@]4(c5nncn5C)C[C@@H](O)C4)c2)C3=O)CCC1(F)F [Compound 31, 6-(((R)-4,4-difluoro-3-methylpiperidin-1-yl)methyl)-2-(3-((1s,3S)-3-hydroxy-1-(4-methyl-4H-1,2,4-triazol-3-yl)cyclobutyl)phenyl)-4-(trifluoromethyl)isoindolin-1-one] | 5 to 20 |  |  | C (C indicates <20 fold) |  | C (C indicates <20 fold) | C (C indicates <1.5 fold) | C (C indicates <0.70 fold) | B (B indicates 1.5-2.5 fold) | C (C indicates <0.70 fold) |
| C[C@H]1CCCN(Cc2cc3c(c(C(F)(F)F)c2)CN(c2cccc([C@]4(c5nncn5C)C[C@@H](O)C4)c2)C3=O)C1 [Compound 32, 2-(3-((1s,3R)-3-hydroxy-1-(4-methyl-4H-1,2,4-triazol-3-yl)cyclobutyl)phenyl)-6-(((S)-3-methylpiperidin-1-yl)methyl)-4-(trifluoromethyl)isoindolin-1-one] | 5 to 20 |  |  | B (B indicates 20-35 fold) |  | A (A indicates >35 fold) | A (A indicates >2.5 fold) | A (A indicates >1.1 fold) | A (A indicates >2.5 fold) | A (A indicates >1.1 fold) |

Reference: patent US12234230B2, “Substituted benzyl-triazole compounds for Cbl-b inhibition, and further uses thereof” (Nurix Therapeutics, Inc., priority 2019, dated 2025)
